Assay results reported in ChEMBL document CHEMBL2074432, “Human jejunal permeability of cyclosporin A: influence of surfactants on P-glycoprotein efflux in Caco-2 cells” (Pharm Res, 2003).

Target: ATP-dependent translocase ABCB1 (Homo sapiens, UniProt P08183)
Assay: TP_TRANSPORTER: transepithelial transport of cyclosporin A in Caco-2 cells
Format: functional, cell-based

Sequence of ATP-dependent translocase ABCB1 (P08183 whole entry): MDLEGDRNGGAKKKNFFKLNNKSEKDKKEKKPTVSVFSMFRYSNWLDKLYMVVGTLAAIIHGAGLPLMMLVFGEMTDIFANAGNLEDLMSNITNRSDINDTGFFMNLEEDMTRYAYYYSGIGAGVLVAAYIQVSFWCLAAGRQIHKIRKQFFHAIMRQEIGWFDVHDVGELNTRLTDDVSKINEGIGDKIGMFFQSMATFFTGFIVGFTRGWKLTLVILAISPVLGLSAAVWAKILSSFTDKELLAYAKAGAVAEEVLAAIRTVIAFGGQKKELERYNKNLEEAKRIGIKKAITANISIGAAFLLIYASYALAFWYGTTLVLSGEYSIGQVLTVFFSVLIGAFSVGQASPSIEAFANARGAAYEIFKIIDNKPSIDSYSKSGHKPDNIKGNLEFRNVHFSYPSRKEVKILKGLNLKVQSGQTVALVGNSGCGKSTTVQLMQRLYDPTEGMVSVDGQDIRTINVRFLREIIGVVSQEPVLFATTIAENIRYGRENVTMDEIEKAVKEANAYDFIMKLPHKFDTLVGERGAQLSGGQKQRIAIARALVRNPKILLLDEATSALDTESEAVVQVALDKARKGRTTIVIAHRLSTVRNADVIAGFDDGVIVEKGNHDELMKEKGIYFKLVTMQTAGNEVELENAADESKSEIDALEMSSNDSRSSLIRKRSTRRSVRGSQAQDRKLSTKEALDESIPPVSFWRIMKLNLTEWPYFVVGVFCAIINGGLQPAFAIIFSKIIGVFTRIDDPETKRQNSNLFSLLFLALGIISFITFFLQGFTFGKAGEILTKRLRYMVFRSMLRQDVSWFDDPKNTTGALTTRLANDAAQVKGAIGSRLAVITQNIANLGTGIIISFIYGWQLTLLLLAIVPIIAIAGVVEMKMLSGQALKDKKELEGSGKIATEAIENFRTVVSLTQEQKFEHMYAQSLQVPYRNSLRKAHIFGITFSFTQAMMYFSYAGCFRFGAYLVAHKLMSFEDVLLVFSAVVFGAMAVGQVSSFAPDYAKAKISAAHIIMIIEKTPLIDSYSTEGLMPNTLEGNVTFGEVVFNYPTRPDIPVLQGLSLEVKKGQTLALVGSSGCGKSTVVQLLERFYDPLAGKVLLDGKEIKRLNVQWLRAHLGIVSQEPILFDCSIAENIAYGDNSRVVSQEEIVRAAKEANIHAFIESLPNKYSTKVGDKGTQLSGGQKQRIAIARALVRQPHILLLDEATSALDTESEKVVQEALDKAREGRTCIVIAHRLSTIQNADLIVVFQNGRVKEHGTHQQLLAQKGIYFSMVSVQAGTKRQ

Activity | Sequence
inhibitor [+] | CREMOPHOR EL
inhibitor [+] | CREMOPHOR RH 40
